Laboratory results taken from PMC12223358 (2025).

Key:
[1] = tested on: ds12 (DNA, duplex) CGCGAATTCGCG; test: CD melting, 253 nm; settings: 20 mM KCl, 5 mM potassium phosphate; pH 7; 2 µM DNA; 4 µM compound (2 equiv); free Tm 65 °C
[2] = tested on: CPG-c-myc (DNA, G4) TGGGGAGGGTGGGGAGGGTGGGGAAGGTGGGGA; test: G4-CPG affinity chromatography, UV; settings: 50 mM KCl; 10% DMSO, 10% ethanol; 60 µM compound loaded; error ±2%
[3] = tested on: CPG-ds27 (DNA, hairpin) CGCGAATTCGCGTTTCGCGAATTCGCG; test: G4-CPG affinity chromatography, UV; settings: 50 mM KCl; 10% DMSO, 10% ethanol; 60 µM compound loaded; error ±2%
[4] = tested on: CPG-tel26 (DNA, G4) TTAGGGTTAGGGTTAGGGTTAGGGTT; test: G4-CPG affinity chromatography, UV; settings: 50 mM KCl; 10% DMSO, 10% ethanol; 60 µM compound loaded; error ±2%
[5] = tested on: tel26 (DNA, G4) TTAGGGTTAGGGTTAGGGTTAGGGTT; test: CD melting, 290 nm; settings: 20 mM KCl, 5 mM potassium phosphate, pH 7, 2 µM DNA, 4 µM compound (2 equiv), free Tm 43 °C
[6] = tested on: ds12 (DNA, duplex) CGCGAATTCGCG; test: CD titration; settings: 20 mM KCl, 5 mM potassium phosphate; pH 7, 20 °C; 2 µM DNA; up to 4 µM compound; no relevant CD effect
[7] = tested on: pu22 (DNA, G4) TGAGGGTGGGTAGGGTGGGTAA; test: CD melting, 263 nm; settings: no metal cations, 10 mM Tris-HCl, pH 7, 2 µM DNA, 4 µM compound (2 equiv), free Tm 27 °C

Row | SMILES | ΔTm [1] | Bound ligand (%) [2] | Bound ligand (%) [3] | Bound ligand (%) [4] | ΔTm [5] | binding [6] | ΔTm ([7]; two transitions) | ΔTm ([5]; switch to parallel fold) | ΔTm [7]
1 | C[n+]1ccccc1C#Cc1cnc2n3ccnc3n3ccnc3n12 | −2 °C | 85% | 10% | 72% | +3 °C | no |  |  | 
2 | C[n+]1ccccc1C#Cc1cnc2n1c1ncc(C#Cc3cccc[n+]3C)n1c1ncc(C#Cc3cccc[n+]3C)n21 | +15 °C | 99% | 56% | 89% |  |  | +16/ + 63 °C | +22 °C | 
3 | C[n+]1ccccc1C#Cc1cnc2n3ccnc3n3c(C#Cc4cccc[n+]4C)cnc3n12 |  | 84% | 39% | 74% |  |  |  |  | 
4 | C[n+]1ccc(C#Cc2cnc3n2c2ncc(C#Cc4cc[n+](C)cc4)n2c2ncc(C#Cc4cc[n+](C)cc4)n32)cc1 | +15 °C | 90% | 50% | 75% |  |  |  | +23 °C | 

Continued, values first:

Row | ΔTm [1] | Bound ligand (%) [2] | Bound ligand (%) [3] | Bound ligand (%) [4] | ΔTm [5] | binding [6] | ΔTm ([7]; two transitions) | ΔTm ([5]; switch to parallel fold) | ΔTm [7] | SMILES
5 |  | 100% | 40% | 79% |  |  |  |  | +45 °C | C[n+]1ccc(C#Cc2cnc3n4ccnc4n4c(C#Cc5cc[n+](C)cc5)cnc4n23)cc1
6 |  | 88% | 15% | 66% |  | no |  |  | +8 °C | C[n+]1ccc(C#Cc2cnc3n4ccnc4n4ccnc4n23)cc1
